Entries after “also recorded” stand apart in the source; their conditions may differ.
Tests used:
CRBP2 = target: T1, CRBP2 (Homo sapiens, UniProt P50120); assay: Fluorescence-binding assay with CRBP2
T1 construct: 6x histidine tag (C, cleaved yes); thrombin cut site (residual residues after digestion) (C); made in house; host or cells: E. coli BL21 (DE3)
T1 sequence (P50120 1-134): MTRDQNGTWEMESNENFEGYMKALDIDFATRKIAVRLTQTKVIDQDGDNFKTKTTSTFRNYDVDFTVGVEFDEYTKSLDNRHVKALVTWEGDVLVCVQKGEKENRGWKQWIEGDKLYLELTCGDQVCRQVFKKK

holo-CRBP1 = target: T2, holo-CRBP1 (Homo sapiens, UniProt P09455); assay: Retinol replacement assay with repurification and LC/MS; format: binding
T2 construct: made in house
T2 sequence (P09455 1-135): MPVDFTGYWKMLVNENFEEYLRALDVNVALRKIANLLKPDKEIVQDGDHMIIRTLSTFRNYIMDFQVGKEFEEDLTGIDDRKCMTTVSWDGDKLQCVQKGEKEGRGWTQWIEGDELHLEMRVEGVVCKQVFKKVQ
Experimental: holo-CRBP1 (500 μg) in 0.5 mL (67 μM) was incubated with tested compound (1:2 molar ratio) delivered in ethanol in 20 mM Tris/HCl, pH 8.0, 200 mM NaCl, 5% glycerol (v/v) at RT for 15 min. The sample was then diluted with 10 mM Tris/HCl, pH 8.0 to the final volume of 5 mL, loaded onto HiTrap Q HP column, and eluted as described above. The elution profiles were monitored at both 280 and 325 nm to concurrently record signals for the protein and the retinoid moieties.
After incubation of apo- or holo-CRBP1 with abn-CBD, the protein was repurified on HiTrap Q HP column as described above. The protein fractions were collected, pooled together, and concentrated to 0.25 mL in an Amicon Ultra-4 centrifugal filter, cutoff 10,000 Da. For quantification purpose, 100 pmol of 3d-abn-CBD (internal standard) were added to the protein samples. To extract organic compounds associated with the repurified CRBP1, 0.25 mL of ethanol was added followed by 4 mL of hexane. […] Abn-CBD and its deuterated derivative were detected in the selected reaction monitoring (SRM) mode using m/z 315.2→221.2 and 318.2→224.1 transitions, respectively. Calibration curves were calculated based on the linear relationship between areas under SRM ion intensity for peaks corresponding to abn-CBD and the internal standard versus molar ratios of these compounds in a range from 20 to 500 pmol.

LRAT = target: T3, LRAT (Bos taurus, UniProt Q9BGL2); assay: Retinol esterification assay; format: biochemical; conditions: bovine RPE microsomes preincubated with 10-50 μM
T3 construct: from tissue; host or cells: bovine RPE microsomes
T3 sequence (Q9BGL2 1-230): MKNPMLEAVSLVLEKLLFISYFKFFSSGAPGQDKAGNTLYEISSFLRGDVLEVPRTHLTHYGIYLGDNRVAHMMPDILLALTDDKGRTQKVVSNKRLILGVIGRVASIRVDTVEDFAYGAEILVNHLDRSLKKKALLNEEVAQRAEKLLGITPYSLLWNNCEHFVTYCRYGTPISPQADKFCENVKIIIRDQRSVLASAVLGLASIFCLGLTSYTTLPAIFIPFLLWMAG
Experimental: The enzymatic activity of LRAT was assayed using isolated UV-treated bovine RPE microsomes as described previously. The reaction mixture included 20 mM Tris/HCl buffer, pH 7.4, 1 mM DTT, 1% bovine serum albumin (BSA; w/v), and RPE microsomes (˜100 μg of total protein) in the total volume of 0.1 mL. To test the influence of abn-CBD on the LRAT activity, 10, 20, or 50 μM of this compound was added prior to the addition of atROL (final concentration of 10 μM). To record the initial rate of the esterification, the mixture was incubated at RT for 5 min. The reaction was quenched with 0.2 mL of methanol, and the retinoids were extracted with 0.3 mL of hexane. The extracted retinoids were separated on a normal phase column (Agilent Zorbax Sil 5 μm 4.6×250 mm) in an isocratic flow of 10% ethyl acetate in hexane (flow rate of 1.5 mL min^−1). Elution of retinoids was monitored at 325 nm. All-trans-retinyl esters were quantified based on a correlation between the amount of injected synthetic standards and the area under chromatographic peaks.
Thus, to further probe the biological effect of this compound, we tested its effect on the key enzymes of the visual cycle. […]

C=C(C)[C@@H]1CCC(C)=C[C@H]1c1c(O)cc(O)cc1CCCCC [abn-CBD, 4-[(1R,6R)-3-Methyl-6-prop-1-en-2-ylcyclohex-2-en-1-yl]-5-pentylbenzene-1,3-diol]
interaction with CRBP2 (CRBP2): does not interact; also recorded: absence of interaction | loss of atROL from holo-CRBP1 (absorbance at 325 nm) (holo-CRBP1; holo-CRBP1 incubated with compound 1:2 molar ratio, repurified): diminished absorbance at 325 nm; also recorded: depletion of atROL | replacement of atROL by ligand (ligand/protein quantification) (holo-CRBP1; holo-CRBP1 with 2 molar excess of abn-CBD, LC/MS): proportional replacement of the retinoid by the cannabinoid | effect on enzymatic activity of LRAT (LRAT): did not cause a measurable decline
